The source of these data is ChEMBL document CHEMBL1201862, “PubChem BioAssay data set” (2004).

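Briefly, cells in 96-well plates were exposed to five compound concentrations for 48 h, and endpoints were estimated by linear interpolation. GI50 marks 50% less growth.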 Activity calls are given as the source filed them. No stated cut-off is given here; in the data, active = GI50 up to about 1.1 µM and inactive = higher.

Among the test systems are A549; CCRF-CEM; COLO 205; DU-145; HT-29; Hs-578T; K562; LOX IMVI; MCF7; MDA-MB-435; NCI-H460; OVCAR-5; SF-268; SK-MEL-2; SK-MEL-5; T47D; UACC-257; UACC-62.
Holding throughout (test): growth of human tumour cells (NCI), 48 h

In the case of `CC1(C)N=[N+]([O-])C1(C)C`, the GI50 with A549, in the assay on CCRF-CEM, with COLO 205, with DU-145, in the assay on HT-29 and in the assay on Hs-578T was > 100 µM (inactive) throughout. The GI50 in the assay on K562, in the assay on LOX IMVI, in the assay with MCF7, in the assay on MDA-MB-435, in the assay on NCI-H460 and in the assay with OVCAR-5 was > 100 µM (inactive) each time. The GI50 in the assay with SF-268, with SK-MEL-2, in the assay with SK-MEL-5, in the assay on T47D, in the assay with UACC-257 and in the assay on UACC-62 was > 100 µM (inactive) in each case.
Consider `CC1CC[C@@]2(OC1)OC1C[C@H]3[C@@H]4CCC5CC(O)CC[C@]5(C)[C@H]4C/C(=N\N(C)C)[C@]3(C)C1[C@@H]2C` (stereo partly drawn), for which the GI50 in the assay with A549 was 35.3 µM (inactive); in the assay with CCRF-CEM, 37.8 µM (inactive); in the assay with COLO 205 it was 19.9 µM (inactive); with DU-145, 21.8 µM (inactive); with HT-29 it was 19.6 µM (inactive); in the assay on Hs-578T it was 28.6 µM (inactive). In addition, the GI50 in the assay with K562 is 28.2 µM (inactive); in the assay with LOX IMVI it was 26.7 µM (inactive); with MCF7, 34.9 µM (inactive); with MDA-MB-435, 19.5 µM (inactive); in the assay on NCI-H460 it was 30.5 µM (inactive); with OVCAR-5, 27.1 µM (inactive). For the same molecule, the GI50 is 31.1 µM (inactive) in the assay with SF-268; 20.5 µM (inactive) in the assay with SK-MEL-2; 21.7 µM (inactive) in the assay with SK-MEL-5; 31.8 µM (inactive) in the assay on T47D; 38.8 µM (inactive) in the assay with UACC-257; 27.6 µM (inactive) with UACC-62.
`O=C(c1ccc([N+](=O)[O-])cc1)C(Br)C(Br)c1ccnc2ccccc12` (stereo not drawn): the GI50 was 8.28 µM (inactive) in the assay with A549; 0.352 µM (active) with CCRF-CEM; 13 µM (inactive) in the assay with COLO 205; 11.8 µM (inactive) in the assay on DU-145; 2.9 µM (inactive) in the assay with HT-29; 6.15 µM (inactive) with Hs-578T. The GI50 with K562 was 2.83 µM (inactive); with LOX IMVI, 2.11 µM (inactive); in the assay with MCF7, 2.39 µM (inactive); with MDA-MB-435, 2.98 µM (inactive); in the assay on NCI-H460, 4.5 µM (inactive); in the assay with OVCAR-5, 16.5 µM (inactive). Besides, the GI50 in the assay with SF-268 is 13 µM (inactive); with SK-MEL-2, 12.6 µM (inactive); in the assay on SK-MEL-5, 6.34 µM (inactive); in the assay with T47D, 5.96 µM (inactive); in the assay with UACC-257 it was 2.18 µM (inactive); in the assay on UACC-62, 9.4 µM (inactive).
`O=C1CCC(Cc2ccc(Cl)cc2Cl)C(=O)N1` (stereo not drawn): the GI50 was > 100 µM (inactive) in the assay on A549; > 100 µM (inactive) in the assay on CCRF-CEM; > 100 µM (inactive) in the assay with COLO 205; > 100 µM (inactive) with DU-145; > 100 µM (inactive) with HT-29; 81.5 µM (inactive) in the assay on Hs-578T. The GI50 in the assay on K562, in the assay on LOX IMVI, with MCF7, with MDA-MB-435, in the assay on NCI-H460 and in the assay with OVCAR-5 was > 100 µM (inactive) each time. For the same molecule, the GI50 in the assay with SF-268 was 82.4 µM (inactive); in the assay with SK-MEL-2, > 100 µM (inactive); in the assay with SK-MEL-5 it was > 100 µM (inactive); with T47D, 80.4 µM (inactive); in the assay on UACC-257, > 100 µM (inactive); in the assay with UACC-62 it was > 100 µM (inactive).
On to `C=CC(C)(O)CCC1C(=C)C(O)CC2C(C)(C)CCCC12C` (stereo not drawn), for which the GI50 in the assay with A549 was 22.1 µM (inactive); with CCRF-CEM it was 18.5 µM (inactive); in the assay on COLO 205, 16 µM (inactive); in the assay with DU-145 it was 18.2 µM (inactive); with HT-29, 17.8 µM (inactive); in the assay with Hs-578T, 22.6 µM (inactive). Also, the GI50 in the assay on K562 is 14.4 µM (inactive); in the assay on LOX IMVI it was 19.2 µM (inactive); in the assay on MCF7, 23.2 µM (inactive); in the assay with MDA-MB-435 it was 18.6 µM (inactive); in the assay with NCI-H460 it was 16.9 µM (inactive); with OVCAR-5, 20 µM (inactive). Also, the GI50 in the assay on SF-268 was 19.9 µM (inactive); with SK-MEL-2, 16.3 µM (inactive); in the assay on SK-MEL-5, 16 µM (inactive); in the assay with T47D it was 23.5 µM (inactive); in the assay with UACC-257, 19 µM (inactive); in the assay with UACC-62 it was 16 µM (inactive).
With `NCS(=O)(=O)O`, the GI50 in the assay with A549, in the assay with CCRF-CEM, with COLO 205, with DU-145, with HT-29 and in the assay with Hs-578T was > 100 µM (inactive) each time. The GI50 in the assay with K562 is > 100 µM (inactive); with LOX IMVI it was > 100 µM (inactive); with MCF7, > 100 µM (inactive); in the assay on MDA-MB-435, > 100 µM (inactive); with NCI-H460, 35.2 µM (inactive); in the assay on OVCAR-5, > 100 µM (inactive). Further, the GI50 in the assay with SF-268, in the assay on SK-MEL-2, in the assay with SK-MEL-5, in the assay on T47D, in the assay with UACC-257 and in the assay with UACC-62 was > 100 µM (inactive) in each case.
For `CN(C)CCNC1=CC(=O)c2c(O)ccc(O)c2C1=O`, the GI50 in the assay with A549 was 10.1 µM (inactive); in the assay on CCRF-CEM, 3.94 µM (inactive); with COLO 205 it was 1.9 µM (inactive); with DU-145 it was 13.8 µM (inactive); in the assay on HT-29 it was 2.59 µM (inactive); in the assay on Hs-578T, 23.1 µM (inactive). Besides, the GI50 was 2.52 µM (inactive) in the assay on K562; 3.39 µM (inactive) in the assay on LOX IMVI; 2.49 µM (inactive) in the assay on MCF7; 1.8 µM (inactive) in the assay on MDA-MB-435; 3.3 µM (inactive) in the assay on NCI-H460; 14.2 µM (inactive) in the assay with OVCAR-5. In addition, the GI50 was 12.3 µM (inactive) with SF-268; 8.95 µM (inactive) in the assay with SK-MEL-2; 1.67 µM (inactive) in the assay with SK-MEL-5; 9.66 µM (inactive) in the assay on T47D; 2.36 µM (inactive) in the assay with UACC-257; 2.33 µM (inactive) in the assay on UACC-62.
`Cc1sc(NC=C2C(=O)CC(C)(C)CC2=O)nc1-c1ccccc1`: the GI50 in the assay with A549 was > 100 µM (inactive); in the assay on CCRF-CEM, 72.6 µM (inactive); in the assay with COLO 205 it was > 100 µM (inactive); in the assay on DU-145 it was > 100 µM (inactive); in the assay with HT-29, > 100 µM (inactive); in the assay on Hs-578T, > 100 µM (inactive). Further, the GI50 in the assay on K562, with LOX IMVI, in the assay on MCF7, in the assay with MDA-MB-435, in the assay on NCI-H460 and in the assay on OVCAR-5 was > 100 µM (inactive) each time. Further, the GI50 in the assay on SF-268, with SK-MEL-2, in the assay on SK-MEL-5, in the assay on T47D, in the assay with UACC-257 and in the assay with UACC-62 was > 100 µM (inactive) each time.
With `NS(=O)(=O)c1ccc(N=C2C(=O)Nc3ccccc32)cc1`, the GI50 in the assay with A549 was > 100 µM (inactive); in the assay with CCRF-CEM, 55.8 µM (inactive); with COLO 205 it was 13.1 µM (inactive); with DU-145, > 100 µM (inactive); in the assay on HT-29 it was > 100 µM (inactive); with Hs-578T it was > 100 µM (inactive). The GI50 in the assay with K562 was 65.8 µM (inactive); in the assay on LOX IMVI it was 57.7 µM (inactive); in the assay with MCF7, 90.2 µM (inactive); in the assay on MDA-MB-435, 24.5 µM (inactive); in the assay with NCI-H460 it was > 100 µM (inactive); in the assay with OVCAR-5, > 100 µM (inactive). Besides, the GI50 with SF-268 was > 100 µM (inactive); in the assay with SK-MEL-2, > 100 µM (inactive); with SK-MEL-5, 36.8 µM (inactive); in the assay with T47D it was > 100 µM (inactive); with UACC-257, > 100 µM (inactive); with UACC-62 it was > 100 µM (inactive).
`CCCCOC(=O)NC(Nc1cccc(C(F)(F)F)c1)(C(F)(F)F)C(F)(F)F`: the GI50 in the assay on A549 was 66.8 µM (inactive); with CCRF-CEM it was 29.6 µM (inactive); with COLO 205, 45.7 µM (inactive); in the assay on DU-145 it was > 100 µM (inactive); in the assay on HT-29, 50.8 µM (inactive); in the assay on Hs-578T it was 44.7 µM (inactive). The GI50 with K562 was 30.5 µM (inactive); in the assay on LOX IMVI, 32.1 µM (inactive); in the assay on MCF7 it was 59.4 µM (inactive); in the assay on MDA-MB-435, 33.8 µM (inactive); in the assay on NCI-H460 it was 32.7 µM (inactive); in the assay on OVCAR-5, > 100 µM (inactive). In addition, the GI50 in the assay on SF-268 is 60 µM (inactive); in the assay with SK-MEL-2, 35.5 µM (inactive); with SK-MEL-5, 49.9 µM (inactive); with T47D, 13.5 µM (inactive); in the assay on UACC-257 it was 84.9 µM (inactive); with UACC-62 it was 58.5 µM (inactive).
Turning to `CC(C)O/N=C/c1cc(NC(=S)OC(C)C)ccc1Cl`, the GI50 in the assay with A549 is 35.4 µM (inactive); in the assay with CCRF-CEM, 13.5 µM (inactive); in the assay with COLO 205, 56.8 µM (inactive); in the assay with DU-145 it was > 65.5 µM (inactive); in the assay with HT-29, 23.1 µM (inactive); in the assay on Hs-578T it was 30.1 µM (inactive). The GI50 in the assay with K562 was 29.4 µM (inactive); in the assay with LOX IMVI, 28.1 µM (inactive); in the assay on MCF7, 23.5 µM (inactive); in the assay on MDA-MB-435, > 61.4 µM (inactive); with NCI-H460, 42.3 µM (inactive); with OVCAR-5 it was 48.6 µM (inactive). The GI50 with SF-268 is 36.1 µM (inactive); in the assay on SK-MEL-2, 26 µM (inactive); in the assay with SK-MEL-5, 23 µM (inactive); in the assay on T47D, 34.3 µM (inactive); in the assay on UACC-257 it was > 100 µM (inactive); with UACC-62, 29.7 µM (inactive).
